Laboratory results reported in PMC9077138, “An investigation on 3-acetyl-7-methoxy-coumarin Schiff bases and their Ru(II) metallates with potent antiproliferative activity and enhanced LDH and NO release” (RSC Advances, 2018).

What was measured:
[1] = tested on: P. aeruginosa; assay: In vitro antibacterial assay (zone of inhibition, MIC); format: cell-based, Pseudomonas aeruginosa; conditions: for Minimum inhibitory concentration (MIC); head: IC50 VALUES / Zone of inhibition: P. aeruginosa
Procedure: (§1) The free ligands and their cyclometallated ruthenium(II) carbonyl complexes were screened for their in vitro antimicrobial activity against certain pathogenic bacterial and fungal species at three different concentrations using disc diffusion method.
(§2) Antimicrobial activities of [RuHClCO(PPh3)3], ligands H2L^1–4 and new organometallic Ru(II) complexes (1–4) were evaluated by agar well diffusion method[76] as reported, by taking Staphylococcus aureus, Streptococcus pneumonie, Pseudomonas aeruginosa, Salmonella paratyphi and fungus such as Candida albicans, Trichophyton rubrum, Aspergillus niger, Aspergillus fumigatus and Candida tropicalis. The above said all test organisms were obtained from the MTCC, Chandigarh, India and Microbiological laboratory, Coimbatore, Tamil Nadu, India. The antimicrobial activity of the test compounds was checked with various concentrations (25 μg ml^−1, 50 μg ml^−1 and 100 μg ml^−1) against all the test pathogens. Gentamicin and ketoconazole were used as positive controls to study the antibacterial and antifungal activities respectively. Each experiment was performed in triplicate and the results are represented as average zone of inhibition and minimum inhibitory concentration of all the test pathogens.

[2] = tested on: C. albicans; assay: In vitro antifungal assay (zone of inhibition, MIC); format: cell-based, Candida albicans; conditions: for Minimum inhibitory concentration (MIC); head: IC50 VALUES / Zone of inhibition: C. albicans
Procedure: as §1, §2

[3] = biological target: T1, HSA (Homo sapiens, UniProt P02768); assay: HSA tryptophan fluorescence quenching; format: binding; conditions: for decrease of HSA fluorescence intensity: compounds 10–100 μM, HSA 10 μM
T1 construct: purchased HiMedia (Mumbai, India)
Excerpt: (§3) The obtained results confirmed the interaction of the ligands and complexes with serum albumins. The absorption spectra of the serum albumins in the absence and presence of ligands H2L^1–4 and the complexes 1–4 are given in Fig. S29 in the ESI. ^† On adding ligands and complexes 1–4 to albumins, the absorbance intensity of serum albumins was decreased with a red shift of 2 nm. The observed changes indicated a static quenching mechanism of serum albumins by the ligands and complexes (1–4). To obtain a quantitative insight into the quenching progression, the Stern–Volmer quenching constant (KSV) and the quenching constant (Kq) were calculated from the Stern–Volmer equation using the Io/ICorrversus [Q] plot (Table 4).[53] The observed linearity in the plots (Fig. 13) indicated the ability of the compounds to quench the emission intensity of serum albumins and the order of quenching constant of the compounds is complex 3 > complex 2 > complex 1 > complex 4 > H2L^3 > H2L^2 > H2L^1 > H2L^4.
(§4) Furthermore, the equilibrium binding constant and number of binding sites were evaluated by using the Scatchard equation. The Kbin values were derived from the graph between log[(Fo − F)/F] and log[Q] From the results, we confirmed that the Ru(II) complexes having a large hydrophobic area can interact more efficiently than the ligands with serum albumins via a static pathway. The higher binding affinity of the complexes over the ligands may be due to the efficient binding of protein moiety with the complexed metal ions. Here, the binding affinities of the complexes with serum albumins followed the same order as those with DNA binding studies, complex 3 > complex 2 > complex 1 > complex 4 > H2L^3 > H2L^2 > H2L^1 > H2L^4. Variation in the binding affinity of the compounds with serum albumins depends on the electron-donating ability of the ligand, i.e. the substitution on the N-terminal nitrogen atom. The binding capability of the compounds to serum albumins increased with the increase in electron-donating ability of the substituent on the terminal nitrogen of the coordinated thiosemicarbazone ligand. The obtained quenching constant and binding constant values of these new cyclometallated ruthenium(II) complexes agree well with those reported for other ruthenium(II) complexes.[31,44,54–56] […]
(§5) Serum albumin binding study
(§6) Bovine Serum Albumin (BSA) and human serum albumin were purchased from Hi Media, The protein binding study was performed by tryptophan fluorescence quenching experiments using bovine serum albumin (BSA, 10 µM) or human serum albumin (HSA, 10 µM) as the substrate in phosphate buffer (pH= 7.2). Quenching of the emission intensity of tryptophan residues of BSA at 346 nm (excitation wavelength at 280 nm)/ HSA at 345 nm (excitation wavelength at 290 nm) was monitored using ligands and complexes as quenchers with increasing concentration (10-100µM). Synchronous fluorescence spectra of BSA or HSA with various concentrations of the complexes were obtained from 300 to 400 nm when ∆λ = 60 nm and from 290 to 500 nm when ∆λ = 15 nm. For synchronous fluorescence spectra, the same concentrations of serum albumins and the compounds were also used and the spectra were measured at two different Δλ values (difference between the excitation and emission wavelengths of BSA), such as 15 and 60 nm. Fluorescence and synchronous measurements were performed using a 1 cm quartz cell on a JASCO FP 6600 spectrofluorimeter.
(§7) The quenching data can be analyzed according to the Stern-Volmer equation, […]
(§8) Io/Icorr =K SV[Q]+1 Eq (S2) where Iₒ is the emission intensity in the absence of compound, Icorr is the corrected emission intensity in the presence of compound, KSV is the quenching constant and [Q] is the concentration of the compound.
(§9) In order to correct the inner filter effect, the following equation used Icorr = Iobs*10 (Aexc+Aem)/2 where Icorr is the corrected fluorescence value, Iobs the measured fluorescence value, Aexc is […]

[4] = biological target: T2, BSA (Bos taurus, UniProt P02769); assay: BSA tryptophan fluorescence quenching; format: binding, bovine; conditions: for Quenching constant kq / Stern–Volmer KSV / number of binding sites n / Binding constant Kbin: BSA; for Binding constant Kbin: Scatchard equation; for quenching of BSA fluorescence intensity at 346 nm: compounds 10–100 μM, BSA 10 μM
T2 construct: purchased HiMedia (Mumbai, India)
Excerpt: as §3, §4, §5, §6, §7, §8, §9

[5] = tested on: S. paratyphi; assay: In vitro antibacterial assay (zone of inhibition, MIC); format: cell-based, Salmonella paratyphi
Excerpt: The free ligands and their cyclometallated ruthenium(II) carbonyl complexes were screened for their in vitro antimicrobial activity against certain pathogenic bacterial and fungal species at three different concentrations using disc diffusion method. […] Tested complexes had better antimicrobial activity than the ligands against all pathogens. This may be explained by Tweedy's chelation theory.[61] Coordination of ligands reduce the polarity of the metal ion essentially by partial sharing of its positive charge with the donor groups within the chelate ring system formed during the coordination and leading to the increase in lipophilic nature of the central metal atom, which favours the effective permeation through the lipid layer of microorganism.[61,62] […] When tested against T. rubrum, the activity of the complexes in the order of 3 > 2 > 1 > 4. In antibacterial studies, the complex 3 was effective against S. aureus followed by complex 2, 1 and 4 and in the case of S. pneumonie the activity of the complexes follows the order of 3 > 1 > 4 > 2. […] When tested against S. paratyphi complex 1 stood out as good followed by the complexes 4, 3 and 2 respectively.
as §2

[6] = tested on: Trichophyton rubrum; assay: In vitro antifungal assay (zone of inhibition, MIC); format: cell-based
Procedure: as §1, §2

[7] = tested on: Aspergillus niger; assay: as above; format: cell-based
Procedure: as §1, §2

[8] = tested on: Candida tropicalis; assay: as above; format: cell-based
Procedure: as §1, §2

[9] = tested on: Aspergillus fumigatus; assay: as above; format: cell-based
Procedure: as §1, §2

T2 sequence (P02769 25-607): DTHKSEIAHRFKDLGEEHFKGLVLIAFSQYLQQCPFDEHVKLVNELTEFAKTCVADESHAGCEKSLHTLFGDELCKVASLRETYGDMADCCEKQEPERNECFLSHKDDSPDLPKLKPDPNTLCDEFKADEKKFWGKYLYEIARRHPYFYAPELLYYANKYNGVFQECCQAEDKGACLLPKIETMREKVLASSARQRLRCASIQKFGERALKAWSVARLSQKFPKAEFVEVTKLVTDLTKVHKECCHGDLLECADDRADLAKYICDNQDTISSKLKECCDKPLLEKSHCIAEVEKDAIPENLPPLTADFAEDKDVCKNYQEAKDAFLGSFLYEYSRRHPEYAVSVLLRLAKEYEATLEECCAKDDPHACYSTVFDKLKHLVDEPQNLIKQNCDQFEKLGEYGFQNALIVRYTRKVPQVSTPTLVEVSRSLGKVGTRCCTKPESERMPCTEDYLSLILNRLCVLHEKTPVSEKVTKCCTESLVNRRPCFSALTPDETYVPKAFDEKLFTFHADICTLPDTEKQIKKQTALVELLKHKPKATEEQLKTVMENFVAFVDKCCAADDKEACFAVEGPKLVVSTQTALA
T1 sequence (P02768 25-609): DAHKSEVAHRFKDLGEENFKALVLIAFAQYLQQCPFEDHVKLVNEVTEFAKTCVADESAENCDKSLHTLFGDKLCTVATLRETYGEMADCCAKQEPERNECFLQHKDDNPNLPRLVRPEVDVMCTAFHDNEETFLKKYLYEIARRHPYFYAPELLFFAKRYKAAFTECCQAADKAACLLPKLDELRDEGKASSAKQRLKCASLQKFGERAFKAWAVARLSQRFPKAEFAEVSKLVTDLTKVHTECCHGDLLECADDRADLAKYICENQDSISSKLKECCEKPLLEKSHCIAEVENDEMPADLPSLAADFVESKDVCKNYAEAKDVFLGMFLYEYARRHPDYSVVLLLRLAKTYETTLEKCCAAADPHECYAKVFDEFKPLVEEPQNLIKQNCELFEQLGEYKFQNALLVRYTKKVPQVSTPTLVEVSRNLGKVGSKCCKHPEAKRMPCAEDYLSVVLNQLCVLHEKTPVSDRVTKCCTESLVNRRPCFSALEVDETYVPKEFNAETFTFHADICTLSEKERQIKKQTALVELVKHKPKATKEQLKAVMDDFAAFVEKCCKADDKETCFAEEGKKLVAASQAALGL

| SMILES | Minimum inhibitory concentration (MIC); head: IC50 VALUES [1] [µM] | Zone of inhibition ([1]; 50 µg/ml) [mm] | Zone of inhibition ([1]; 100 µg/ml) [mm] | Minimum inhibitory concentration (MIC); head: IC50 VALUES [2] [µM] | Zone of inhibition ([2]; 50 µg/ml) [mm] | Zone of inhibition ([2]; 100 µg/ml) [mm] | Quenching constant kq ([3]; HSA) | Stern–Volmer KSV ([3]; HSA) | number of binding sites n ([3]; HSA) | Binding constant Kbin ([3]; HSA, Scatchard equation) | decrease of HSA fluorescence intensity [3] [%] | Quenching constant kq [4] | Stern–Volmer KSV [4] | number of binding sites n [4] | Binding constant Kbin [4] | quenching of BSA fluorescence intensity at 346 nm [4] [%] | Zone of inhibition ([5]; 50 µg/ml) [mm] | Zone of inhibition ([5]; 100 µg/ml) [mm] | Minimum inhibitory concentration (MIC); head: IC50 VALUES [6] [µM] | Zone of inhibition ([6]; 50 µg/ml) [mm] | other results |
| --- | --- | --- | --- | --- | --- | --- | --- | --- | --- | --- | --- | --- | --- | --- | --- | --- | --- | --- | --- | --- | --- |
| CNC1=N[N+]2=C(C)c3[c](c4ccc(OC)cc4oc3=O)[Ru-4]2([C]#[O+])([P+](c2ccccc2)(c2ccccc2)c2ccccc2)([P+](c2ccccc2)(c2ccccc2)c2ccccc2)[S]1 [Complex 2, [Ru(7MAC-mtsc)(CO)(PPh3)2]] | 14.81 ± 0.19 | 12.12±0.13 | 17.95±0.21 | 13.59 ± 0.15 | 12.45±0.31 | 16.28±0.10 | 1.088 ± 0.030 × 10^12 M^−1 s^−1 | 1.088 ± 0.030 × 10^4 M^−1 | 1.1859 ± 0.004 | 6.341 ± 0.039 × 10^4 M^−1 | 50.56 | 2.382 ± 0.011 × 10^12 M^−1 s^−1 | 2.382 ± 0.011 × 10^4 M^−1 | 1.0478 ± 0.031 | 3.323 ± 0.027 × 10^4 M^−1 | 71.15 | 13.41±0.01 | 18.45±0.51 | 15.14 ± 0.24 | 12.16±0.15 | Zone of inhibition ([6]; 100 µg/ml): 17.45±0.35 mm; Minimum inhibitory concentration (MIC); head: IC50 VALUES [7]: 14.67 ± 0.31 µM; Zone of inhibition ([7]; 50 µg/ml): 11.56±0.24 mm; Zone of inhibition ([7]; 100 µg/ml): 19.63±0.12 mm; Minimum inhibitory concentration (MIC); head: IC50 VALUES [8]: 13.46 ± 0.15 µM; Zone of inhibition ([8]; 50 µg/ml): 12.64±0.15 mm; Zone of inhibition ([8]; 100 µg/ml): 19.52±0.27 mm; Minimum inhibitory concentration (MIC); head: IC50 VALUES [9]: 14.70 ± 0.1 µM; Zone of inhibition ([9]; 50 µg/ml): 12.61±0.71 mm; Zone of inhibition ([9]; 100 µg/ml): 17.36±0.45 mm |
| CCNC(=S)NN=C(C)c1cc2ccc(OC)cc2oc1=O [H2L^3, ((1E)-1-(1-(7-methoxy-2-oxo-2H-chromen-3-yl)ethylidene) 4(N)-ethylthiosemicarbazone)] | – | – | – | – | – | – | – | – | – | – | – | – | – | – | – | – | – | – | – | – | zone of inhibition at 50 µg/mL ([1]; Pseudomonas aeruginosa): 12.5 ± 0.34 mm; zone of inhibition at 100 µg/mL ([1]; Pseudomonas aeruginosa): 16.4 ± 0.23 mm; zone of inhibition at 50 µg/mL ([2]; Candida albicans): 11.3 ± 0.12 mm; zone of inhibition at 100 µg/mL ([2]; Candida albicans): 18.2 ± 0.22 mm; Kd ([3]; HSA, Scatchard equation, read-out: Binding constant Kbin (converted)): 382 µM; Kd [4]: 70.9 µM; zone of inhibition at 50 µg/mL ([5]; Salmonella enterica, 50 µg/ml): 12.2 ± 0.25 mm; zone of inhibition at 100 µg/mL ([5]; Salmonella enterica, 100 µg/ml): 17.1 ± 0.32 mm; zone of inhibition at 50 µg/mL [6]: 13.56 ± 0.05 mm; zone of inhibition at 100 µg/mL [6]: 19.1 ± 0.21 mm; zone of inhibition at 50 µg/mL [7]: 12.6 ± 0.31 mm; zone of inhibition at 100 µg/mL [7]: 17.62 ± 0.12 mm; zone of inhibition at 50 µg/mL [8]: 12.3 ± 0.51 mm; zone of inhibition at 100 µg/mL [8]: 17.2 ± 0.51 mm; zone of inhibition at 50 µg/mL [9]: 12.2 ± 0.51 mm; zone of inhibition at 100 µg/mL [9]: 18.2 ± 0.24 mm |
| COc1ccc2[c]3c(c(=O)oc2c1)C(C)=[N+]1N=C(N)[S][Ru-4]31([C]#[O+])([P+](c1ccccc1)(c1ccccc1)c1ccccc1)[P+](c1ccccc1)(c1ccccc1)c1ccccc1 [Complex 1, [Ru(7MAC-tsc)(CO)(PPh3)2]] | 16.37 ± 0.19 | 13.23±0.32 | 16.66±0.44 | 15.19 ± 0.15 | 12.22±0.41 | 18.91±0.41 | 0.741 ± 0.010 × 10^12 M^−1 s^−1 | 0.741 ± 0.010 × 10^4 M^−1 | 1.1329 ± 0.018 | 2.273 ± 0.017 × 10^4 M^−1 | 41.01 | 1.674 ± 0.040 × 10^12 M^−1 s^−1 | 1.674 ± 0.040 × 10^4 M^−1 | 1.0408 ± 0.030 | 2.251 ± 0.029 × 10^4 M^−1 | 62.61 | 12.55±0.04 | 18.95±0.31 | 15.29 ± 0.29 | 11.57±0.22 | Zone of inhibition ([6]; 100 µg/ml): 17.56±0.13 mm; Minimum inhibitory concentration (MIC); head: IC50 VALUES [7]: 15.89 ± 0.18 µM; Zone of inhibition ([7]; 50 µg/ml): 11.74±0.26 mm; Zone of inhibition ([7]; 100 µg/ml): 17.52±0.41 mm; Minimum inhibitory concentration (MIC); head: IC50 VALUES [8]: 15.15 ± 0.11 µM; Zone of inhibition ([8]; 50 µg/ml): 12.82±0.34 mm; Zone of inhibition ([8]; 100 µg/ml): 18.51±0.54 mm; Minimum inhibitory concentration (MIC); head: IC50 VALUES [9]: 15.56 ± 0.11 µM; Zone of inhibition ([9]; 50 µg/ml): 12.31±0.62 mm; Zone of inhibition ([9]; 100 µg/ml): 19.64±0.65 mm |
